Source: article PMC9610999, “Itraconazole-Induced Increases in Gilteritinib Exposure Are Mediated by CYP3A and OATP1B” (Molecules, 2022)

What was measured:
[1] = molecular target: T1, human OATP1B1 (SLCO1B1) (Homo sapiens, UniProt Q9Y6L6); test: Transport inhibition assay: EβG uptake in OATP1B1 overexpressing HEK293 cells; type: cell-based; settings: OATP1B1 overexpressing HEK293 cells vs vector control; radiolabeled EβG; 15 min pre-incubation; read-out: IC50, inhibition of OATP1B1-mediated cellular accumulation of EβG
T1 construct: expressed in transfected cells; host or cells: HEK293
T1 sequence (Q9Y6L6 1-691): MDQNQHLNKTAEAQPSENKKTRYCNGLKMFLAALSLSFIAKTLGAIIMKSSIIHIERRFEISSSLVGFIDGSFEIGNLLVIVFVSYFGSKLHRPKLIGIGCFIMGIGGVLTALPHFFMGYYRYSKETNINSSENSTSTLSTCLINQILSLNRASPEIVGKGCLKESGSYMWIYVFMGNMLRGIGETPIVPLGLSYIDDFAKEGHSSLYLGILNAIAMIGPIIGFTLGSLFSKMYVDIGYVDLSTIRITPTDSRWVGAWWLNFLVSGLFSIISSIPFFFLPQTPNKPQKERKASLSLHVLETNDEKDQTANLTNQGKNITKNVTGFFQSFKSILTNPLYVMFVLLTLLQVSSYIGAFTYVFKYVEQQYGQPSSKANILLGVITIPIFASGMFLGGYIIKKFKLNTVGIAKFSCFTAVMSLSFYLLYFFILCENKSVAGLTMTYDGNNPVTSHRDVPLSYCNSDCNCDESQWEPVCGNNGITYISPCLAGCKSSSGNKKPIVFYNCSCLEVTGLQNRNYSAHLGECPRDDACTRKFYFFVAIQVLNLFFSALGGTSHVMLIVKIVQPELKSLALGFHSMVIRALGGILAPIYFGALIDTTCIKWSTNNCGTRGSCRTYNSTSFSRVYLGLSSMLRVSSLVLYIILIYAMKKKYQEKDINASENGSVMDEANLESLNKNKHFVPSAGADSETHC
Protocol: Human embryonic kidney (HEK293) cells stably transfected with human OATP1B1 (SLCO1B1) cDNA, or an empty control vector were established and cultured as previously described. Cells were maintained in DMEM supplemented with 10% FBS, 50 µg/mL hygromycin B, 15 µg/mL blasticidin, and maintained in a humidified incubator at 37 °C with 5% CO2. Prior to plating, 24-well tissue culture plates (Thermo Fisher Scientific) were coated with poly-d-lysine. Seeding media was prepared using phenol red-free DMEM with 10% FBS with no selection agents. To the seeding media, […] of doxycycline was added to induce expression of OATP1B1.
OATP1B1 overexpressing cells and vector control cells were plated in 24-well tissue culture plates at a volume of 0.5 mL (containing 2 × 10^6 cells/mL) per well. Plates were returned to an incubator at 37 °C and transport assays were conducted 24 h later. Transport activity was measured using EβG, a prototypical substrate of OATP1B1. Experiments were conducted using phenol red- and serum-free DMEM. Intracellular levels of total radioactivity originating from EβG were assessed by liquid scintillation counting. The resulting counts were normalized to total protein levels as determined by a Pierce protein assay. The influence of gilteritinib, itraconazole, keto-itraconazole, or hydroxy-itraconazole on OATP1B1-mediated transport was assessed following a 15 min pre-incubation at various concentrations of test inhibitors followed by co-incubation of test inhibitors with EβG. Inhibition of transport activity by gilteritinib was determined by comparing the accumulation of EβG in the presence of gilteritinib, itraconazole, keto-itraconazole, or hydroxy-itraconazole to that of EβG in the presence of only the control vehicle, DMSO. The final concentration of DMSO in media was less than 0.2% in all in vitro experiments.

[2] = system: CDCA-24G, an endogenous biomarker of OATP1B transporter function; test: Plasma CDCA-24G (endogenous biomarker of OATP1B function) in mice treated with itraconazole; type: in vivo
[3] = system: OATP1B biomarkers coproporphyrin (CP) I and CPIII; parameters: method as in PMID 34049965, PMID 29777022; settings: itraconazole 100 mg to human subjects; cited from earlier work

Row | IC50 [1] [µM] | Compound | CDCA-24G AUC0–4h ([2]; 100 mg/kg) | CDCA-24G AUC0–4h ([2]; CYP3A(−/−) female mice, itraconazole 100 mg/kg) | CDCA-24G AUC Fold Increase ([2]; CYP3A(−/−) mice, itraconazole 100 mg/kg, vs. CYP3A(−/−) untreated) [fold] | CDCA-24G AUC Fold Increase ([2]; CYP3A(−/−) mice, itraconazole 100 mg/kg, vs. WT Alone) [fold] | CDCA-24G AUC Fold Increase ([2]; Wild-type FVB mice, itraconazole 100 mg/kg, vs. CYP3A(−/−) + Itraconazole) [fold] | CDCA-24G AUC Fold Increase ([2]; Wild-type FVB mice, itraconazole 100 mg/kg, vs. WT untreated) [fold] | Effect on circulating levels of coproporphyrin (CP) I and CPIII [3]
1 | 27.3 | CCC(C)n1ncn(-c2ccc(N3CCN(c4ccc(OCC5COC(Cn6cncn6)(c6ccc(Cl)cc6Cl)O5)cc4)CC3)cc2)c1=O (stereo not shown) [Itraconazole] | 5.10 (±1.60) ng ∗ h/mL | 3.30 (±1.00) ng ∗ h/mL | 1 | 0.9 | 1.5 | 1.3 | not associated with changes
2 | 2.95 | CC(O)C(C)n1ncn(-c2ccc(N3CCN(c4ccc(OCC5COC(Cn6cncn6)(c6ccc(Cl)cc6Cl)O5)cc4)CC3)cc2)c1=O (stereo not shown) [hydroxy-itraconazole] |  |  |  |  |  |  | 

Row | Compound | IC50 [1] [µM] | CDCA-24G AUC0–4h ([2]; 100 mg/kg) | CDCA-24G AUC0–4h ([2]; CYP3A(−/−) female mice, itraconazole 100 mg/kg) | CDCA-24G AUC Fold Increase ([2]; CYP3A(−/−) mice, itraconazole 100 mg/kg, vs. CYP3A(−/−) untreated) [fold] | CDCA-24G AUC Fold Increase ([2]; CYP3A(−/−) mice, itraconazole 100 mg/kg, vs. WT Alone) [fold] | CDCA-24G AUC Fold Increase ([2]; Wild-type FVB mice, itraconazole 100 mg/kg, vs. CYP3A(−/−) + Itraconazole) [fold] | CDCA-24G AUC Fold Increase ([2]; Wild-type FVB mice, itraconazole 100 mg/kg, vs. WT untreated) [fold] | Effect on circulating levels of coproporphyrin (CP) I and CPIII [3]
3 | CC(=O)C(C)n1ncn(-c2ccc(N3CCN(c4ccc(OC[C@H]5CO[C@](Cn6cncn6)(c6ccc(Cl)cc6Cl)O5)cc4)CC3)cc2)c1=O (stereo partly shown) [keto-itraconazole] | 7.5 |  |  |  |  |  |  | 
